Assays:
[1] = target: Cyclin-dependent kinase 2/cyclin E (Homo sapiens, UniProt P24941)
Mus musculus [2] = organism: Mus musculus
Description: Percentage of compound bound to serum protein was determined

[3] = Cmax in mice at 25 umol/kg i.p. administration; type: ADME, organism-based; set-up: dose 25 umol/kg, route intraperitoneal; details: mouse, in vivo, ip
Mus musculus [4] = test: Mean-residence time was determined for compound after intraperitoneal administration in mice at 25 uM/kg; type: functional, organism-based
Mus musculus [5] = test: Area under curve was determined for compound after intraperitoneal administration in mice at 25 uM/kg; type: functional, organism-based
Mus musculus [6] = test: Tmax in mice at 25 uM/kg i.p. administration; type: functional, organism-based
Mus musculus [7] = test: Half life after intraperitoneal administration in mice at 25 uM/kg; type: functional, organism-based
[8] = Cmax in mice at 24 umol/kg i.p. administration; type: ADME, organism-based; set-up: dose 24 umol/kg, route intraperitoneal; details: mouse, in vivo, ip
P388 [9] = test system: P388
Description: Increase in life span of the treated mice to those of control was determined

P388 [10] = test system: P388; remark: listed apart in the source
Description: Maximum tolerated dose was determined against P338 tumor in mice after intraperitoneal administration daily for 7 days

Mus musculus [11] = test: Mean-residence time was determined for compound after intraperitoneal administration in mice at 26 uM/kg; type: functional, organism-based
Mus musculus [12] = test: Area under curve was determined for compound after intraperitoneal administration in mice at 26 uM/kg; type: functional, organism-based
[13] = Cmax in mice at 26 umol/kg i.p. administration; type: ADME, organism-based; set-up: dose 26 umol/kg, route intraperitoneal; details: mouse, in vivo, ip
Mus musculus [14] = organism: Mus musculus; test: Log cell kill for A2780 tumor in mice; type: functional
Mus musculus [15] = organism: Mus musculus; remark: listed apart in the source
Description: Maximum tolerated dose in A2780 tumor in mice after intraperitoneal administration daily for 8 days

Mus musculus [16] = test: Half life after intraperitoneal administration in mice at 26 uM/kg; type: functional, organism-based
Mus musculus [17] = test: Mean-residence time was determined for compound intravenous administration in mice at 23 uM/kg; type: functional, organism-based
Mus musculus [18] = test: Tmax in mice at 23 uM/kg i.v. administration; type: functional, organism-based
Mus musculus [19] = test: Half life after intravenous administration in mice at 23 uM/kg; type: functional, organism-based
Mus musculus [20] = organism: Mus musculus; test: Log cell kill for A2780 tumor in mice; […]; type: functional
in vivo = details: mouse, iv, 23 umol/kg
Description: Cmax in mice at 23 umol/kg i.v. administration

Mus musculus [21] = test: Microsomal stability was determined in mouse liver microsomes after intravenous administration in mice at 23 uM/kg; type: functional
Mus musculus [22] = test: Area under curve was determined for compound after intraperitoneal administration in mice at 18 uM/kg; type: functional, organism-based
Mus musculus [23] = test: Mean-residence time was determined for compound after intraperitoneal administration in mice at 18 uM/kg; type: functional, organism-based
Mus musculus [24] = test: Tmax in mice at 18 uM/kg i.p. administration; type: functional, organism-based
Mus musculus [25] = test: Half life after intraperitoneal administration in mice at 18 uM/kg; type: functional, organism-based
[26] = Cmax in mice at 18 umol/kg i.p. administration; type: ADME, organism-based; set-up: dose 18 umol/kg, route intraperitoneal; details: mouse, in vivo, ip
Mus musculus [27] = test: Microsomal stability was determined in mouse liver microsomes after intraperitoneal administration in mice at 18 uM/kg; type: functional

Compound: CC(C)(C)c1cnc(CSc2cnc(NC(=O)C3CCCCC3)s2)o1
- IC50 [1]: 300 µM

Compound: CN1CCC(C(=O)Nc2ncc(SCc3ncc(C(C)(C)C)o3)s2)CC1
- Binding (Mus musculus [2]): 75%
- Cmax [3]: 1.1 µM
- MRT (Mus musculus [4]): 1.1 h
- AUC (Mus musculus [5]): 473 ng·h/mL
- Tmax (Mus musculus [6]): 0.5 h
- T1/2 (Mus musculus [7]): 0.7 h

Compound: CC(C)(C)c1cnc(CSc2cnc(NC(=O)C3CCN(CCO)CC3)s2)o1
- Binding (Mus musculus [2]): 75%
- Cmax [8]: 1.1 µM
- Survival (P388 [9]): 140%
- MRT (Mus musculus [4]): 2.4 h
- MTD (P388 [10]): 22.5 mg/kg
- AUC (Mus musculus [5]): 764 ng·h/mL
- Tmax (Mus musculus [6]): 0.5 h
- T1/2 (Mus musculus [7]): 1.9 h

Compound: CC(=O)Nc1ncc(SCc2ncc(C(C)(C)C)o2)s1
- Binding (Mus musculus [2]): 83%
- IC50 [1]: 5 µM

Compound: CC(C)(C)OC(=O)N1CCC(C(=O)Nc2ncc(SCc3ncc(C(C)(C)C)o3)s2)CC1
- Binding (Mus musculus [2]): 99%

Compound: CC(C)(C)c1cnc(CSc2cnc(NC(=O)C3CCN(S(C)(=O)=O)CC3)s2)o1
- Binding (Mus musculus [2]): 84%

Compound: CC(C)(C)c1cnc(CSc2cnc(NC(=O)C3CCCNC3)s2)o1 (configuration not stated)
- MRT (Mus musculus [11]): 3.5 h
- Binding (Mus musculus [2]): 82%
- AUC (Mus musculus [12]): 4600 ng·h/mL
- Survival (P388 [9]): 152%
- Cmax [13]: 3.5 µM
- LCK (Mus musculus [14]): 1.6
- MTD (P388 [10]): 20 mg/kg
- MTD (Mus musculus [15]): 22 mg/kg
- T1/2 (Mus musculus [16]): 2.2 h

Compound: CC(C)(C)c1cnc(CSc2cnc(NC(=O)[C@H]3CC[C@@H](N)CC3)s2)o1
- Binding (Mus musculus [2]): 68%
- MRT (Mus musculus [17]): 2.2 h
- Survival (P388 [9]): 179%
- Tmax (Mus musculus [18]): 6 min
- T1/2 (Mus musculus [19]): 2.2 h
- LCK (Mus musculus [20]): 1.7
- Cmax (in vivo): 13.6 µM
- Activity (Mus musculus [21]): 0.07 nM min-1 (mg of protein)-1
- MTD (P388 [10]): 8 mg/kg
- MTD (Mus musculus [15]): 8 mg/kg
- AUC (Mus musculus [22]): 4660 ng·h/mL

Compound: CC(C)(C)c1cnc(CSc2cnc(NC(=O)Cc3ccccc3)s2)o1
- IC50 [1]: 3 µM

Compound: CC(C)(C)c1cnc(CSc2cnc(NC(=O)[C@H]3CC[C@H](N)CC3)s2)o1
- Binding (Mus musculus [2]): 86%

Compound: CC(C)(C)c1cnc(CSc2cnc(NC(=O)Cc3ccc(CNC(CO)CO)cc3)s2)o1
- Binding (Mus musculus [2]): 79%
- MRT (Mus musculus [23]): 2.9 h
- Survival (P388 [9]): 140%
- Tmax (Mus musculus [24]): 1 h
- LCK (Mus musculus [14]): 3.3
- T1/2 (Mus musculus [25]): 1.8 h
- MTD (P388 [10]): 32 mg/kg
- MTD (Mus musculus [15]): 26 mg/kg
- Cmax [26]: 0.8 µM
- Activity (Mus musculus [27]): 0.22 nM min-1 (mg of protein)-1
- AUC (Mus musculus [22]): 1320 ng·h/mL

From ChEMBL document CHEMBL1149325 (J Med Chem, 2004)
